Reference: US7439017B2, “Assays for measuring nucleic acid binding proteins and enzyme activities” (BioVeris Corporation, priority 1998, dated 2008)

Tested on: DNA substrate containing the NFkβ consensus sequence
Experiment: DNase protection assay for DNA-protein interactions (ECL)
Format: binding
Procedure: This example illustrates the use of the invention to measure protein-DNA interactions, specifically, the binding of the transcription factor NFkβ with its consensus DNA sequence. A schematic depicting the assay format can be found in the detailed description of the invention. DNAse 1 and NFkβ were purchased from Promega Corp. A DNA substrate containing a consensus DNA sequence for NFk was prepared by Midland Certified Reagent Co. by solid phase synthesis. The sequence of the substrate is shown below. The nucleotides shown in brackets were linked by phosphorothioate linkages; the other linkages were standard phosphodiester bonds. […]
The labeled DNA substrate (50 fmol), poly dI-dC (1 ug, to reduce non-specific protein-DNA interactions) and varying amounts of recombinant NFkβ (p50 subunit) were combined in a 20 uL volume and incubated for 30 min. at room temperature. […] The reaction mixture was introduced into an ORIGEN Analyzer (IGEN International) running in Magnetic Capture Mode and the ECL signal from RuBpy on the magnetic beads was determined in the presence of a solution containing tripropylamine (ORIGEN Assay Buffer, IGEN International). […]
The specificity of the assay was determined by replacing the specific binding protein NFkβ with other DNA binding proteins specific for sequences not present on the DNA substrate (the phosphorothioate containing substrate was used).

ECL Signal (specificity test, DNase added, phosphorothioate containing NFkβ consensus substrate): 32289
Substance: AP-2: DNA binding protein specific for sequences not present on the DNA substrate
nuclease protection of the DNA substrate containing the NFkβ consensus sequence (in words): no ability to protect against nuclease attack
